Test results reported in patent US8222242B2, “Nitric oxide releasing compounds” (The Regents of the University of California, priority 2008, dated 2012).
Read-outs that look alike come from different tables or passages of the source.

Experiments:
rabbits = assay: Rabbits with phenylephrine-induced hypertension; type: in vivo, rabbit
Description: Phenylephrine was given by continuous intravenous infusion to an anesthetized rabbit at increasing rates from 5 to 20 μg/kg/min; the rabbit remained on the highest phenylephrine infusion rate until the end of the experiment (darker arrows with “A”-shaped arrowheads indicate start times of each increasing dose). At 49 minutes, an infusion of NO-Cbi was started at a rate of 3 μg/kg/min (2.9 nmol/kg/min), with the infusion rate doubled at 58 minutes (lighter arrows with triangular-shaped arrowheads indicate start times of infusions). Systolic and diastolic blood pressure recordings from an intra-arterial catheter are shown. Changes in total hemoglobin, oxyhemoglobin, and deoxyhemoglobin concentrations were measured by continuous wave near-infrared spectroscopy over the left thigh muscle. Phenylephrine caused a progressive decrease in total hemoglobin and oxyhemoglobin concentrations, which reversed within seconds of starting the NO-Cbi infusion.
Decreased tissue oxygenation as occurred in the experiments shown in FIGS. 7 and 8 would clearly be an undesirable effect of treating hypertensive patients with NO-Cbi. However, lowering blood pressure of a hypertensive patient is very different from lowering blood pressure of a normotensive subject, and the experiments described in Example 15 rabbits with normal or low (due to anesthesia) blood pressure. To simulate a hypertensive state, the blood pressure of rabbits was raised using a continuous intravenous infusion of phenylephrine, a peripheral vasoconstrictor (FIG. 9). As the rabbit's blood pressure increased above normal, tissue perfusion and oxygenation decreased, as evidenced by a decrease in total hemoglobin and oxyhemoglobin concentrations in muscle.
Thus, in an animal with drug-induced hypertension, NO-Cbi improved tissue perfusion and oxygenation as it lowered blood pressure.

[1] = tested on: Malpighian tubules isolated from D. melanogaster; assay: Malpighian tubule fluid secretion; parameters: species or system Drosophila melanogaster
Description: Malpighian tubules are the osmoregulatory organs of D. melanogaster, corresponding to vertebrate kidneys. Tubular fluid secretion is stimulated by NO and cGMP, and fluid secretion rates were measured as described previously (Broderick K E et al. (2005) J. Biol. Chem. 280:8678-85). Briefly, the Malpighian tubule pair of a fly was resected and suspended in mineral oil. […]
Malpighian tubules are an excellent model for studying the effects of a drug on an intact organ system (Broderick K E et al. (2003) Am. J. Physiol. Cell Physiol. 285:C1207-18). […] Deta-NONOate may not be affected as much by cysteine in the medium, because it has a slower NO release rate and the intact drug can be transported intracellularly before much NO is released.

D. melanogaster = assay: Viability of injected D. melanogaster; settings: 1 μl injected; 1 mM (ascorbic acid 5 mM); observed 48 h
Description: (A) Tubular secretion rates of Malpighian tubules isolated from D. melanogaster were measured, using half-strength Schneider's medium. Basal tubular secretion was measured at 0, 10, and 20 minutes; at 20 minutes (depicted by the arrow) 1 mM cobinamide (Cbi, open circles), 1 mM NO-Cbi (filled circles), 0.5 mM Deta-NONOate (diamonds), or 100 μM 8-CPT-cGMP (inverted triangles) were added. Results are the mean±S.D. of three independent experiments performed on Malpighian tubule pairs from 10 flies. […] (B). Flies were injected with 1 μl of 1 mM cobinamide (Cbi, open circles), 1 mM NO-Cbi (filled circles), 0.5 mM Deta-NONOate (diamonds), or 1 mM spermine NONOate (squares). […] The data are plotted as a Kaplan-Meier survival curve, and are the mean±SD of three experiments, with 10 flies per condition per experiment. […] (C). Flies were injected with 1 μl of water (control, open bar), 1 mM cobinamide (Cbi, grey bar), or 1 mM NO-Cbi (black bars). Flies were killed and extracts were prepared at 3 hours for the water- and cobinamide-injected flies, and at the indicated times for the NO-Cbi-injected flies. Nitrite and nitrate in the extracts were measured using an enhanced Griess reagent.
The fluid volume of a fly is […], and thus, the injected agent was diluted about 10-fold. […]

[2] = tested on: CS-54 rat vascular smooth muscle cells
Description: CS-54 rat vascular smooth muscle cells were treated with the indicated concentrations of NO-Cbi for 1 hour (A), or 10 μM NO-Cbi for the indicated times (B and C). […] (C) Cell extracts were clarified by centrifugation, and nitrite and nitrate in the extracts were measured by an enhanced Griess reagent method. In A and B, “Con” refers to control, which was cells treated with water. As indicated, the effects of 30 μM cobinamide (Cbi) and 100 μM 8-CPT-cGMP (cGMP) are shown for comparison. In A and B, similar results were obtained in two other experiments.
Nitrite and nitrate were measured in CS-54 cell extracts and fly extracts using a kit from Active Motif based on an enhanced Griess reagent, as described previously (Broderick K E et al. (2006) FASEB J. 20:1865-73).

[3] = incubated with excess heme; cited from earlier work
mice = type: in vivo, mouse
Description: Mice were anesthetized with 1.5% isoflurane gas, and after achieving a stable blood pressure and pulse (about 10 minutes), they were injected intraperitoneally with 100 μl of […] 8 mM Cbi(II) (open circles, solid line), 8 mM NO-Cbi (filled circles, dashed line), or 8 mM nitroglycerin (squares, dotted lines) (panels a and b). Control refers to anesthetized mice who received 100 μl water (triangles, solid line). In panel C, 100 μl of 6 mM NO-Cbi was injected at 0, 32, and 64 minutes as indicated by the arrows. Systolic and diastolic blood pressures, and pulse rate, were measured at the indicated times on the tail artery using a non-invasive tail cuff. The percent change in mean arterial pressure (A and C), and pulse rate (B and C) are shown. For panels A and B, data are the mean±SD of results from five mice for NO-Cbi studied on separate days, and four mice for the other conditions. […] Data in panel C are the mean±SD of results from three mice studied on different days.
Pulse, and systolic and diastolic blood pressures, were measured non-invasively in the tail artery of mice by restraining mice on a warming platform maintained at ˜38° C. The base of the tail was placed in a computer-controlled pneumatic cuff, and the distal tail was placed in a sensor assembly consisting of a light emitting diode and a photodiode detector. Baseline measurements were made with the mice awake in a dark chamber. The mice were then anesthetized with 3% isoflurane in an induction chamber, and returned to the platform where they received 1.5% isoflurane with 2 liter per minute of oxygen via a nose cone; the isoflurane caused a small, but stable, drop in blood pressure. Drugs in a volume of 100 ul were injected intraperitoneally into the mice, and pulse and blood pressure were measured every 5-15 minute, taking five readings at each time point.
To determine the effect of NO release from NO-Cbi in an intact mammal, blood pressure and pulse of mice injected intraperitoneally with NO-Cbi were measured.

[4] = for change of spectrum: room temperature, open to air
Description: NO-Cbi was diluted 100-fold into DMEM containing 10% FBS, transferred to a cuvette, and analyzed immediately by spectrophotometry between 300 and 600 nm (curve a). Spectra were obtained every 30 minutes for 3 hours, generating the family of curves, with curve b being the 3 hour spectrum; in the inset, curve b is the spectrum at 16 hours. The cuvette was open to air and kept at room temperature. The same experiment was repeated two times with similar results.
NO-Cbi was diluted 100-fold in water, PBS, or DMEM containing 10% FBS to a final concentration of 50 uM. It was analyzed spectrophotometrically between 300 and 600 nm in a Kontron 860 spectrophotometer, and by mass spectroscopy using a LCQ classic ion-trap-type mass spectrometer (Thermo-Finnigan) at 160° C. capillary temperature and 5000V spray voltage. The mass spectrometry data were acquired in profile mode and analyzed on Xcalibur software.

CC1=C2[N+]3=C(C=C4[N+]5=C(C(C)=C6[N]7C(C(CC(N)=O)C6(C)CCC(=O)NCC(C)O)C6(C)[N+](=C1C(CCC(N)=O)C6(C)CC(N)=O)[Co-3]753[N]=O)C(CCC(N)=O)C4(C)C)C(CCC(N)=O)C2(C)CC(N)=O (stereo not drawn) [NO-Cbi, nitrosyl cobinamide]
blood pressure (rabbits; NO-Cbi infusion 3 μg/kg/min during phenylephrine, within seconds): began to decrease
total tissue hemoglobin and oxyhemoglobin concentrations (rabbits; NO-Cbi infusion during phenylephrine): increased
rate of tubular secretion relative to cobinamide-treated tubules ([1]; 1 mM, 70 minute time point (50 minutes after adding drugs), half-strength Schneider's medium): 1.6 times
fluid secretion ([1]; 1 mM, half-strength Schneider's medium): stimulated fluid secretion to a similar extent as 100 μM 8-CPT-cGMP, but somewhat less than 500 μM Deta-NONOate
fluid secretion ([1]; full strength of Schneider's medium): no effect
fly killing / toxicity to flies (D. melanogaster): killed the flies as effectively as 1 mM spermine NONOate
increased nitrite and nitrate as share of the NO added as NO-Cbi ([2]; 10 μM NO-Cbi, CS-54 cells): 55%
nitrite and nitrate in the culture medium ([2]; 10 μM NO-Cbi, CS-54 cells): increased nitrite and nitrate
half-life of NO-Cbi estimated from nitrite and nitrate accumulation ([2]; rat): 30 min and 60 min
half-life [3]: short
systolic and diastolic blood pressure (mice; 0.8 μmol (100 μl of 8 mM) intraperitoneally, anesthetized mice): rapidly reduced
increase of pulse rate compared with nitroglycerin (mice; 0.8 μmol intraperitoneally): more pronounced than that observed with nitroglycerin
time required for blood pressure to return to control values (mice; 0.8 μmol intraperitoneally): ~45 min
blood pressure reduction compared with nitroglycerin (mice; equimolar amounts, intraperitoneally): reduced blood pressure more potently than an equimolar amount of nitroglycerin
half-life of NO-Cbi in the mice (mice; mouse, in vivo): 30 to 60 min
pulse rate above control values (mice; until 75 minutes): more than 10%
time for spectrum to change to that of cobinamide ([4]; DMEM containing 10% FBS): about 3 h
effect on NO-Cbi's half-life ([4]; buffer): significantly reduced
half-life ([4]; buffer): ~90 min
change of spectrum ([4]; phosphate-buffered saline (PBS)): little spectral change
change of spectrum ([4]; water, 16 hours): did not change
